Tests used:
Progesterone receptor = target: T1, Progesterone receptor (Bos taurus, UniProt Q690N0); experiment: DRUGMATRIX: Progesterone radioligand binding (ligand: [3H] R-5020); type: tissue-based, Uterus; details: Not Active = under 50% inhibition at 10 µM
T1 sequence (Q690N0 whole entry): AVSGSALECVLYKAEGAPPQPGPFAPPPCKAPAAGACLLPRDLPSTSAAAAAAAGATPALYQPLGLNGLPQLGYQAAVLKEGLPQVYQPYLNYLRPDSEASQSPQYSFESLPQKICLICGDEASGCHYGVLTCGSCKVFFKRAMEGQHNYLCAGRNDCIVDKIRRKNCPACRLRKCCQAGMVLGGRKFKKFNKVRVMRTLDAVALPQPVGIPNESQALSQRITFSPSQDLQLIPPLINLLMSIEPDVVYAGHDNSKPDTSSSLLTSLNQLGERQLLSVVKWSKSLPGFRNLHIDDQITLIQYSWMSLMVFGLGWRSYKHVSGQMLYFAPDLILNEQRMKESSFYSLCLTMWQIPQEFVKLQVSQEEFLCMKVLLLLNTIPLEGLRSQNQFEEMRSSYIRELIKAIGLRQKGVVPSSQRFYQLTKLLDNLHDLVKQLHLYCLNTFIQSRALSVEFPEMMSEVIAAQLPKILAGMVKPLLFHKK

[1] = target: T2, Cholecystokinin receptor type A (Homo sapiens, UniProt P32238); type: cell membranes, Membrane; details: 1321-n1; note: in other assays of this panel Not Active means under 50% inhibition at 10 µM
T2 sequence (P32238 whole entry): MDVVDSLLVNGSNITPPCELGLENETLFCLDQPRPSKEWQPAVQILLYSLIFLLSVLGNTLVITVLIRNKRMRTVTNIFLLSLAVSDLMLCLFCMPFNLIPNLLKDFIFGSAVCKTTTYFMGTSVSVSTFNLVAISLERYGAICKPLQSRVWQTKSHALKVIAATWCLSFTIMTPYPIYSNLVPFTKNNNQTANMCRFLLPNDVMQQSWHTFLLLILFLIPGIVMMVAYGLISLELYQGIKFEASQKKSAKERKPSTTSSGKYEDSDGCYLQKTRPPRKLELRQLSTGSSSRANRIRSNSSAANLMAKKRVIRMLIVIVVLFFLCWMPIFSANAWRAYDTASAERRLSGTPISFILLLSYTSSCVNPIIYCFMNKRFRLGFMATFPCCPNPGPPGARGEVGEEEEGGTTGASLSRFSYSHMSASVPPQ

[2] = DRUGMATRIX: GABAA, Muscimol, Central radioligand binding (ligand: [3H] Muscimol); type: cell membranes, Rattus norvegicus, Wistar, Brain, Membrane; details: Not Active = under 50% inhibition at 10 µM
[3] = DRUGMATRIX: Tumor Necrosis Factor (TNF), Non-Selective radioligand binding (ligand: [125I] TNF-alpha); type: cell membranes, Membrane; details: u-937; Not Active = under 50% inhibition at 10 µM
[4] = target: Beta-2 adrenergic receptor (Homo sapiens, UniProt P07550); experiment: DRUGMATRIX: Adrenergic beta2 radioligand binding (ligand: [3H] CGP-12177); type: cell membranes, Membrane; details: cho; Not Active = under 50% inhibition at 10 µM
Chain of Beta-2 adrenergic receptor (P07550 whole entry): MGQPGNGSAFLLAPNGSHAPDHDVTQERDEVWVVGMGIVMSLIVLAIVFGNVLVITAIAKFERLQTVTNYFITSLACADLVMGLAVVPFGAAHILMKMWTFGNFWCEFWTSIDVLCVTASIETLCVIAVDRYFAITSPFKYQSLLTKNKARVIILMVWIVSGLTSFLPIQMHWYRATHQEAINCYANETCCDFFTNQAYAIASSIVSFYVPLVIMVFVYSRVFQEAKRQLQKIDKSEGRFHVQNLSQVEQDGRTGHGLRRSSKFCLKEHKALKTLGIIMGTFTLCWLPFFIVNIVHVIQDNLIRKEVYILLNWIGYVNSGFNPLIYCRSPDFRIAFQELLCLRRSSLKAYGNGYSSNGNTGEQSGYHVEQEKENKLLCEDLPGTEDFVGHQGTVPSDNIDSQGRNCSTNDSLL

[5] = target: T3, Amine oxidase [flavin-containing] A (Homo sapiens, UniProt P21397); experiment: DRUGMATRIX: Monoamine Oxidase MAO-A enzyme inhibition (substrate: Kynuramine); design: species or system BTI-TN-5B1-4; details: bti-tn-5b1-4; Not Active = under 50% inhibition at 10 µM
T3 sequence (P21397 whole entry): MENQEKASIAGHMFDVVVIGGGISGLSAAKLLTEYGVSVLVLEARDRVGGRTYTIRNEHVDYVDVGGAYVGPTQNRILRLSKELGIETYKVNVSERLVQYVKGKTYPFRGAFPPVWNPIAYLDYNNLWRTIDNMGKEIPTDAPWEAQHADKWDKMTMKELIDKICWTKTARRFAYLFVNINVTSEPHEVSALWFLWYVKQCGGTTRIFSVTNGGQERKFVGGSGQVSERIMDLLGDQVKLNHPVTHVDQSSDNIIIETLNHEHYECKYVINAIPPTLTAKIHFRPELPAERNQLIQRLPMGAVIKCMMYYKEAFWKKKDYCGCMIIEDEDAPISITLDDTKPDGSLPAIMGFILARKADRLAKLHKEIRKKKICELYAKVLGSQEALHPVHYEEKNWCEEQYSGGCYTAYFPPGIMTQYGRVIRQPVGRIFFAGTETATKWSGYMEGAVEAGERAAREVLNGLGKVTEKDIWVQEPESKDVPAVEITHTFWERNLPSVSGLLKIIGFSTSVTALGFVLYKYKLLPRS

[6] = target: Protein phosphatase 3 catalytic subunit alpha (Homo sapiens, UniProt Q08209); design: species or system Escherichia coli;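 note: inhibition of calcineurin (PP2B) enzyme activity, measured with DiFMUP as the substrate; in other assays of this panel Not Active means under 50% inhibition at 10 µM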
Melanocortin receptor 5 = Melanocortin receptor 5 (Homo sapiens, UniProt P33032); type: cell membranes, HEK293, Membrane; details: hek293; note: in other assays of this panel Not Active means under 50% inhibition at 10 µM
Chain of Melanocortin receptor 5 (P33032 whole entry): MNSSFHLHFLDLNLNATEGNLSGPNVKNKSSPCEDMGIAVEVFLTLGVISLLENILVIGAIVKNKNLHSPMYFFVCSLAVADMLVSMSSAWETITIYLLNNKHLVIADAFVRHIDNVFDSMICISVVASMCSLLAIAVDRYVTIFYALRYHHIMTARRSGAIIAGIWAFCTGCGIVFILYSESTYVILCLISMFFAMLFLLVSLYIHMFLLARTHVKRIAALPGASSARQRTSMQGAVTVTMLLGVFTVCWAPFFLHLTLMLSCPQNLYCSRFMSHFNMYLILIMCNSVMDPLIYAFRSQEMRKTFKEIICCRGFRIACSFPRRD

[7] = target: T4, Vasoactive intestinal polypeptide receptor 1 (Homo sapiens, UniProt P32241); type: cell membranes, Membrane; details: ht-29; note: in other assays of this panel Not Active means under 50% inhibition at 10 µM
T4 sequence (P32241 whole entry): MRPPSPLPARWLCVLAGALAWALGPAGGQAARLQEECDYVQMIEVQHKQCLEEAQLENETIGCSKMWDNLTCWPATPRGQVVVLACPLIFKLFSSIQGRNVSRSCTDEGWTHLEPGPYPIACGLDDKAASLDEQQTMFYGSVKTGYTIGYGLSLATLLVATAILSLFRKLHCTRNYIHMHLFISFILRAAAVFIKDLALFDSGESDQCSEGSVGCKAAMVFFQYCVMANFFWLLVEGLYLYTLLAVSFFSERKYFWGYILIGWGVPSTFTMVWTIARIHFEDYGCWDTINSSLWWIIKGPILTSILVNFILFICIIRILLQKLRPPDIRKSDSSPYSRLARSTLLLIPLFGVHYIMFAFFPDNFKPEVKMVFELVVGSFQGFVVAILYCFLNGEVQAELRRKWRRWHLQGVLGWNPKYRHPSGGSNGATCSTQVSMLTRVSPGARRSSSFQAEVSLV

Cytochrome P450 2C9 = Cytochrome P450 2C9 (Homo sapiens, UniProt P11712); details: bti-tn-5b1-4; note: in other assays of this panel Not Active means under 50% inhibition at 10 µM
Chain of Cytochrome P450 2C9 (P11712 whole entry): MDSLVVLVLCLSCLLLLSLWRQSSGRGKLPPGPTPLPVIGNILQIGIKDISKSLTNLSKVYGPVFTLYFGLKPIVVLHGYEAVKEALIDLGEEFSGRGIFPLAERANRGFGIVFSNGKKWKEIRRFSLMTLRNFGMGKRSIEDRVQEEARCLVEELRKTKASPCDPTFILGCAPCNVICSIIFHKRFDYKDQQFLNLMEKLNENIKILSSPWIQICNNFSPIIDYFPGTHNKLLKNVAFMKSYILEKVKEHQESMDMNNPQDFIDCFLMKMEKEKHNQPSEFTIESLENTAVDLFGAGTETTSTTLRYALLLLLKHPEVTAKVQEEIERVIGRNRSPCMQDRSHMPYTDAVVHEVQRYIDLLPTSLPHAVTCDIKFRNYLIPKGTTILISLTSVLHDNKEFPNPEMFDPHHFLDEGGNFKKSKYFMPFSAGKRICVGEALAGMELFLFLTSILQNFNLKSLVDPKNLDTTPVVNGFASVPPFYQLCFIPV

[8] = target: T5, Neuropeptide Y receptor type 1 (Homo sapiens, UniProt P25929); type: cell membranes, Membrane; details: sk-n-mc; note: in other assays of this panel Not Active means under 50% inhibition at 10 µM
T5 sequence (P25929 whole entry): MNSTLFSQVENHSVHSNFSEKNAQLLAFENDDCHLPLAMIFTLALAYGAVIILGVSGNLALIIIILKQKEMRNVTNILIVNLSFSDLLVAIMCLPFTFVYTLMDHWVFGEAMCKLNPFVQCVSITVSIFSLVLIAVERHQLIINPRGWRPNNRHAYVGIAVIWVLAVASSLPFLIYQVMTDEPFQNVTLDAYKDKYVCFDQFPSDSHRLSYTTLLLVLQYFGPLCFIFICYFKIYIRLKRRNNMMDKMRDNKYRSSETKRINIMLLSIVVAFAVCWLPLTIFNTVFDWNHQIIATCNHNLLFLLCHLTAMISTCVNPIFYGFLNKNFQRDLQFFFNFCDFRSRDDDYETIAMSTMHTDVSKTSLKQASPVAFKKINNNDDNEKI

C/C=C1\[C@H]2C=C(C)C[C@]1(N)c1ccc(=O)[nH]c1C2 [HUPERZINE A]
Not Active: IC50 (Progesterone receptor) | IC50 [1] | IC50 [2] | Ki [2] | IC50 [3] | Ki [3] | IC50 [4] | IC50 [5] | IC50 [6] | IC50 (Melanocortin receptor 5) | IC50 [7] | IC50 (Cytochrome P450 2C9) | Ki (Cytochrome P450 2C9) | IC50 [8]

Reference: ChEMBL document CHEMBL1909046, “DrugMatrix in vitro pharmacology data”
